According to US4263316A, “N-(1-Methyl-2-pyrrolidinylmethyl)-2,3-dimethoxy-5-methylsulfamoyl benzamide and its derivatives, methods of preparing them and their application to the treatment of troubles of the lower part of the body” (Societe d'Etudes Scientifiques et Industrielles de l'Ile de …, priority 1978, dated 1981):
Read-outs that look alike come from different tables or passages of the source.

Columns and labels:
[1] = Acute toxicity (lethal dose) in Swiss mice, parenteral and oral; details: mouse, in vivo
Experimental: The acute toxicity of the compounds of the invention was determined on Swiss mice parenterally, (intravenously, intraperitoneally, subcutaneously) and orally.
Measurement of the lethal doses of N-(1-methyl-2-pyrrolidinylmethyl)-2,3-dimethoxy-5-methylsulphamoyl benzamide (compound 1) and its levorotatory isomer (compound 2) gave the following results: […]

[2] = Clinical tolerance and ease of oral treatment in both indications; assay type: in vivo, men and women
Description: For both the above indications, the ease of oral treatment was appreciated and the tolerance was excellent.

man = assay: Gaseous cystomanometric study in man (cases of serious neurological bladder); assay type: in vivo
Experimental: A person suffering from multiple sclerosis suffered from incontinence, pollakisuria and the very frequent need to urinate. The intramuscular injection of two 100 mg ampules of the compound of the invention delayed the need to urinate for a volume of 150 cm^3, compared with 80 cm^3 before treatment.
A person having psychogenic urinary disorders with incontinence and pollakisuria received two 100 mg ampules of the compound according to the invention by the intramuscular route. They only needed to urinate for a volume of 400 cm^3, compared with 200 cm^3 before treatment. They were able to voluntarily prevent urination for 2 minutes compared with 15 seconds before treatment.

pelvic spasms = assay: Treatment of pelvic spasms on probe after urological gynecological surgery; assay type: in vivo; details: intramuscular or intravenous
[3] = test system: functional disorders of the lower urinary apparatus of men; assay: Double blind study in males versus lipidosterolic complex extracted from pygeum africanum (prostatism); assay type: in vivo
Experimental: functional disorders of the lower urinary apparatus of men and particularly in the case of prostatism
(§1) 2. To check these impressions, two studies were carried out according to the double blind procedure:
The study was carried out in comparison with the only possible reference product: lipidosterolic complex extracted from pygeum africanum.

rat = assay: Cystomanometry in the anesthetized rat; assay type: in vivo
Experimental: (§2) A pharmacological study of the compound of the invention which consisted of studying its action on the results of cystomanometry in the rabbit and rat was performed under the following conditions: the animals were anesthesized with pentobarbitol and were given artificial respiration. The left outer jugular vein was catheterized to permit the I.V. injection of the studied product. The bladder was then exteriorized and the two ureters were connected and provided with two catheters, one of which was used to measure the intravesical pressure and the other for the vesical filling.
(§3) The vesical was filled by perfusion of 0.9% salt water at a constant flow rate of 40 ml/min for the rabbit and 5 ml/min for the rat.
(§4) The intravesical pressure before perfusion and the perfused water volume were measured.
(§5) The following parameters were studied: the intravesical pressure before perfusion P1 the intravesical pressure at the time of starting urination P2 […]
(§6) the volume of salt water perfused the quantity discharged during urination the residual quantity only in the bladder.
The cystomanometry study was performed under the following conditions: a first perfusion was carried out after stabilising the preparation for 5 minutes a second perfusion was carried out 15 minutes after the first a third perfusion was carried out 5 minutes after the second. […]

[4] = test system: cystalgias with clear urine in women; assay: Double blind study in females versus placebo (cystalgias with clear urine); assay type: in vivo
Experimental: cystalgias with clear urine in women.
as §1
Due to the absence of a reference product the activity of the present product was compared with a placebo.

rabbit = assay: Cystomanometry in the anesthetized rabbit; assay type: in vivo
Experimental: as §2, §3, §4, §5, §6
The cystomanometry study was performed under the following conditions: a first perfusion was carried out after stabilising the preparation for 5 minutes a second perfusion was carried out 15 minutes after the first a third perfusion was carried out 5 minutes after the second.
The study was performed by chronic and acute administration to the rabbit and acute administration to the rat.
The study of the rabbit was performed in the following manner:
10 male rabbits having an average weight of 2500±100 g were used as the control batch for the chronic administration study, 10 male rabbits with an average weight of 2500±100 g were treated every morning for 8 days with N-(1-methyl-2-pyrrolidinylmethyl)-2,3-dimethoxy-5-methylsulphamoyl benzamide intramuscularly injected at a dosage of 10 mg/kg/day. The final injection was carried out 30 minutes before the experiment […]
for the acute administration study 2 batches of 10 male rabbits with an average weight of 2500±100 g were treated with N-(1-methyl-2-pyrrolidinylmethyl)-2,3-dimethoxy-5-methylsulphamoyl benzamide intravenously administered at doses of 5 and 50 mg/kg.
For the controls and for all the treated batches the first perfusion is used as a standard for the following perfusions (each animal serving as its own control).
In the case of the acute administration of N-(1-methyl-2-pyrrolidinylmethyl)-2,3-dimethoxy-5-methylsulphamoyl benzamide to both the rabbit and the rat the product was injected at the end of the first perfusion.
There was a delay of 15 minutes before the two other perfusions (this was also respected for the controls in order to adhere to the same experimental conditions).

[5] = intravenous, read-out: LD50 I.V.
[6] = ip, intraperitoneal, read-out: LD50 I.P.
[7] = sc, subcutaneous, read-out: LD50 S.C.

| SMILES | LD50 [1, 5] [mg/kg] | LD50 [1, 6] [mg/kg] | LD50 ([1]; oral, read-out: LD50 P.O.) [mg/kg] | LD50 [1, 7] [mg/kg] | tolerance [2] | vesical tolerance (man; man, two cases of serious neurological bladder) | volume at which need to urinate occurs (man; person, multiple sclerosis, intramuscular, two 100 mg ampules, 80 cm^3 before treatment) [cm^3] | time of voluntary prevention of urination (man; person, psychogenic urinary disorders, intramuscular, two 100 mg ampules, 15 seconds before treatment) [min] | volume at which need to urinate occurs (man; person, psychogenic urinary disorders, intramuscular, two 100 mg ampules, 200 cm^3 before treatment) [cm^3] | activity in the treatment of pelvic spasms (pelvic spasms) | superiority over lipidosterolic complex extracted from pygeum africanum [3] | same phenomena as in the rabbit (ΔP, perfusion volume) (rat; acute I.V. 50 and 100 mg/kg) | urinary volume (rat; second and third perfusions, particularly at I.V. dosage of 50 mg/kg) | superiority over placebo [4] | urinary threshold (rabbit; anesthetized rabbit) | significance of differences compared with the controls (rabbit; rabbit, acute I.V. 5 and 50 mg/kg) | variations of the same parameters (ΔP, perfusion volume) (rabbit; rabbit, acute I.V. 5 and 50 mg/kg, second and third perfusions, compared with chronic administration) | decrease of the perfusion volume compared with the controls (rabbit; rabbit, intramuscular, 10 mg/kg/day for 8 days) | reduction of ΔP (P2 - P1) compared with control batch (rabbit; rabbit, intramuscular, 10 mg/kg/day for 8 days, as from the first perfusion) | difference of ΔP compared with the controls at the third perfusion (rabbit; rabbit, intramuscular, 10 mg/kg/day for 8 days, third perfusion) |
| --- | --- | --- | --- | --- | --- | --- | --- | --- | --- | --- | --- | --- | --- | --- | --- | --- | --- | --- | --- | --- |
| CNS(=O)(=O)c1cc(OC)c(OC)c(C(=O)NCC2CCCN2C)c1 (single isomer, unassigned) [Compound 2, Levorotatory N-(1-methyl-2-pyrrolidinylmethyl)-2,3-dimethoxy-5-methylsulphamoyl benzamide] | 90 to 94.6 | 310 to 336 | 1080 to 1150 | 741 to 780 | – | – | – | – | – | – | – | – | – | – | – | – | – | – | – | – |
| CNS(=O)(=O)c1cc(OC)c(OC)c(C(=O)NCC2CCCN2C)c1 (stereo not drawn) [Compound 1, N-(1-methyl-2-pyrrolidinylmethyl)-2,3-dimethoxy-5-methylsulphamoyl benzamide] | 130 to 135 | 315 to 323 | 992 to 1050 | 936 to 960 | excellent | increase in the vesical tolerance | 150 | 2 | 400 | remarkably active | statistically significant | not observed | significant increase | very significant | lowers the urinary threshold | highly significant | Variations in the same direction of the same parameters and in the same proportions | about half | about a third | reduced at the third perfusion |
